# Assay results from patent US6479670B1, “Selective retinoid acid receptor agonists” (Hoffmann-La Roche Inc., priority 1999, dated 2002).
# Test system: rat model of elastase-induced emphysema
# Experiment: Repair of alveoli in elastase-induced emphysema (rat model), morphometric analysis
# Assay type: in vivo, male Sprague Dawley rats
# Details: elastase-induced emphysema in rats
# Procedure: RAR selective agonists were evaluated for its effects on alveolar repair in the rat model of elastase-induced emphysema in rats (Massaro et al. Nature (Medicine, 1997, 3, 675)). Animals were divided into treatment groups of approximately eight. Lung inflammation and alveolar damage was induced in male Sprague Dawley rats by a single instillation of pancreatic elastase(porcine derived, Calbiochem) 2 U/gram body mass. Three weeks post injury all-trans retinoic acid or RAR agonist was dissolved in dimethylsulfoxide (20 mg/ml) and stored at −20 C. Fresh working stocks were prepared fresh daily by dilution in PBS to a final concentration of 2 mg/ml. Animals treated with all-trans retinoic acid (0.5 mg/Kg ip) were dosed once daily by intraperitoneal injection, starting 21 days post injury. Control groups were challenged with elastase and 21 days later treated with Vehicle (DMSO/PBS) for 14 days. Animals were sacrificed 24 hours after the last dose of by exsanguination under deep anesthesia.
# The lungs were inflated with 10% neutral buffered formalin by intratracheal instillation at a constant rate (1 ml/gram body mass/min). The lung was excised and immersed in fixative for 24 hours prior to processing. Standard methods were used to prepare 5 um paraffin sections. Sections were stained with Hematoxylin and Eosin (H%E). Computerized Morphometric analysis was performed to determine the average alveolar size and alveolar number (Table 1).
compound,measurement,setting,value
"COCC1(C)CCCOc2cc(C#Cc3ccc(C(=O)O)cc3)ccc21 (racemic) [A, 4-(5-methoxymethyl-5-methyl-2,3,4,5-tetrahydro-1-benzo[b]oxepin-8-yl-ethynyl)-benzoic acid]",% repair area,0.1 mg/kg p.o.,45.2%
same,% repair area,0.3 mg/kg p.o.,51.3%
same,% repair area,0.5 mg/kg i.p.,58%
